Measurements published in US20250052749A1, “SYSTEMS AND METHODS OF SELECTING COMPOUNDS THAT INDUCE CONFORMATIONAL CHANGES IN MUTANT CEREBLON” (BRISTOL-MYERS SQUIBB COMPANY, priority 2021, published 2025).
Entries after “also recorded” stand apart in the source; their conditions may differ.

How the values were obtained:
Ikaros/Cereblon/DDB1 = target: T1, Ikaros/Cereblon/DDB1 (Homo sapiens, UniProt Q96SW2); assay: cryo-EM of drug-mediated Ikaros recruitment to Cereblon-DDB1; settings: wild-type Cereblon/DDB1, FIG. 4C; result in words
T1 construct: human cereblon (amino acids 5-442); ZZ-domain-6×His-thrombin site (cleaved yes); made in house; host or cells: SF9 insect cells (CRBN-DDB1); E. coli BL21 (DE3) Star (Ikaros)
Method: (§1) Frozen 20 mg/mL cereblon-DDB1 complexes were thawed and diluted to 5 mg/mL with buffer containing 20 mM HEPES pH 7, 150 mM NaCl, 3 mM TCEP. Immediately prior to plunge-freezing in liquid ethane, samples are diluted 10-fold in the same buffer supplemented with 0.011% Lauryl Maltose-Neopentyl Glycol (LMNG) to limit complex dissociation. Quantifoil 300 mesh R1.2/1.3 UltrAuFoil Holey Gold Films were plasma cleaned for 7 seconds using a Solarus plasma cleaner (Gatan, Inc.) with a 75% nitrogen, 25% oxygen atmosphere at 15 W. Immediately prior to sample application, grids are further pre-treated with 4 μL solution containing 10 μM cereblon binding-deficient mutant Ikaros residues 140-196 Q146A G151N and blotted from behind with torn Whatman 1 filter paper. 4 μL dilute sample is applied, excess sample was blotted away for 4 s and vitrified by manual plunge freezing into a liquid ethane pool cooled by liquid nitrogen using a manual plunger in a 4° C. cold room >95% humidity. Samples containing IMiDs are prepared the same way, with 10× molar equivalent of drug yielding a buffer concentration 20 mM HEPES pH 7, 150 mM NaCl, 3 mM TCEP, <1% DMSO mixed 2 minutes prior to dilution and application to the grid. Similarly, Ikaros samples are prepared by incubation of 2-fold molar excess Ikaros 2 minutes prior to dilution and application to the grid. […]

Cereblon-DDB1 [1] = target: T2, Cereblon-DDB1 (Homo sapiens, UniProt Q96SW2); assay: cryo-EM population analysis of open/closed Cereblon conformers with saturating IMiD/CELMoD; design: human cereblon (amino acids 5-442); ZZ-domain-6×His-thrombin site (cleaved yes); made in house; host or cells: SF9 insect cells; settings: wild-type Cereblon-DDB1, saturating amount of drug, cryo-EM single-particle analysis
Method: as §1

Cereblon = Cereblon (Homo sapiens, UniProt Q96SW2); assay: Cereblon binding affinity; settings: CELMoD affinity for Cereblon compared with Pomalidomide/IMiD
Cereblon-DDB1 [2] = target: T2, Cereblon-DDB1; assay: hydrogen-deuterium exchange mass spectrometry (HDX-MS) of Cereblon-DDB1 peptides; design: made in house; settings: compared with unliganded DDB1-Cereblon; result in words
Method: For peptide identification, differential HDX-MS experiments were conducted as previously described with a few modifications (Chalmers, M. J., et al. (2006). Probing protein ligand interactions by automated hydrogen/deuterium exchange mass spectrometry. Analytical Chemistry, 78(4), 1005-1014). Peptides were identified using tandem MS (MS/MS) with an Orbitrap mass spectrometer (Q Exactive, ThermoFisher). Product ion spectra were acquired in data-dependent mode with the top five most abundant ions selected for the product ion analysis per scan event. The MS/MS data files were submitted to Mascot (Matrix Science) for peptide identification. […] The MASCOT search was repeated against a decoy (reverse) sequence and ambiguous identifications were ruled out and not included in the HDX peptide set. […]
Mass spectrometric data were acquired using an Orbitrap mass spectrometer (Exactive, ThermoFisher). […] The intensity weighted mean m/z centroid value of each peptide envelope was calculated and subsequently converted into a percentage of deuterium incorporation. […] Statistical significance for the differential HDX data is determined by an unpaired t-test for each time point, a procedure that is integrated into the HDX Workbench software (Pascal, B. D., et al. (2012). HDX workbench: software for the analysis of H/D exchange MS data. Journal of the American Society for Mass Spectrometry, 23(9), 1512-1521.). […]

P98A Cereblon-DDB1 = target: T3, P98A Cereblon-DDB1 (Homo sapiens, UniProt Q96SW2, P98A); assay: cryo-EM of P98A mutant Cereblon saturated with drug along with Ikaros; settings: for conformation of P98A Cereblon in presence of drug (open/closed) / recruitment of Ikaros Zf 2-3 to P98A mutant Cereblon: result in words; for recruitment of Ikaros Zf 2-3 to P98A mutant Cereblon: FIG. 9
T3 construct: human cereblon (amino acids 5-442); ZZ-domain-6×His-thrombin site (cleaved yes); made in house; host or cells: SF9 insect cells (CRBN-DDB1, by 'as before'); E. coli BL21 (DE3) Star (Ikaros)
Method: Frozen 20 mg/mL cereblon-DDB1 complexes were thawed and diluted to 5 mg/mL with buffer containing 20 mM HEPES pH 7, 150 mM NaCl, 3 mM TCEP. Immediately prior to plunge-freezing in liquid ethane, samples are diluted 10-fold in the same buffer supplemented with 0.011% Lauryl Maltose-Neopentyl Glycol (LMNG) to limit complex dissociation. Quantifoil 300 mesh R1.2/1.3 UltrAuFoil Holey Gold Films were plasma cleaned for 7 seconds using a Solarus plasma cleaner (Gatan, Inc.) with a 75% nitrogen, 25% oxygen atmosphere at 15 W. Immediately prior to sample application, grids are further pre-treated with 4 μL solution containing 10 μM cereblon binding-deficient mutant Ikaros residues 140-196 Q146A G151N and blotted from behind with torn Whatman 1 filter paper. 4 μL dilute sample is applied, excess sample was blotted away for 4 s and vitrified by manual plunge freezing into a liquid ethane pool cooled by liquid nitrogen using a manual plunger in a 4° C. cold room >95% humidity. Samples containing IMiDs are prepared the same way, with 10× molar equivalent of drug yielding a buffer concentration 20 mM HEPES pH 7, 150 mM NaCl, 3 mM TCEP, <1% DMSO mixed 2 minutes prior to dilution and application to the grid. Similarly, Ikaros samples are prepared by incubation of 2-fold molar excess Ikaros 2 minutes prior to dilution and application to the grid.
Cryo-EM data were collected on a Thermo-Fisher Talos Arctica transmission electron microscope operating at […] using parallel illumination conditions. Micrographs were acquired using a Gatan K2 Summit direct electron detector, operated in electron counting mode applying a total electron exposure of […]. The Leginon data collection software was used to collect 2912 micrographs at 36,000× nominal magnification (1.15 Å/pixel at the specimen level) with a nominal defocus set to −1.5 μm. Variation from the nominally set defocus due to a ˜5% tilt in the stage gave rise to a defocus range (this tilt was not intentional and required service to correct). Stage movement was used to target the center of sixteen 1.2 μm holes for focusing, and an image shift was used to acquire high magnification images in the center of each of the sixteen targeted holes.

[3] = P98A mutant Cereblon, saturated with drug along with Ikaros

Structure (SMILES): O=C1CC[C@H](N2Cc3c(OCc4ccc(CN5CCOCC5)cc4)cccc3C2=O)C(=O)N1 [Compound 1, (S)-3-(4-((4-(morpholinomethyl)benzyl)oxy)-1-oxoisoindolin-2-yl)piperidine-2,6-dione]
- recruitment of Ikaros ZF1-2-3 to CRBN^closed (Ikaros/Cereblon/DDB1): is recruited to CRBN^closed
- particles adopting CRBN^closed conformation (Cereblon-DDB1 [1]): ~50%
- improved affinity (Cereblon): approximately 20 fold
- change in solvent accessibility (HDX differential) upon addition of drug (Cereblon-DDB1 [2]): affected solvency for both the sensor loop and residues within the Lon domain and HB

Structure (SMILES): N#Cc1ccc(N2CCN(Cc3ccc(COc4cccc5c4CN([C@H]4CCC(=O)NC4=O)C5=O)cc3)CC2)c(F)c1 [Compound 2, (S)-4-(4-(4-(((2-(2,6-dioxopiperidin-3-yl)-1-oxoisoindolin-4-yl)oxy)methyl)benzyl)piperazin-1-yl)-3-fluorobenzonitrile]
- particles adopting CRBN^closed conformation with Ikaros bound (P98A Cereblon-DDB1; [3]): 25%
- conformation of P98A Cereblon in presence of drug (open/closed) (P98A Cereblon-DDB1; [3]): can overcome this mutation
- recruitment of Ikaros Zf 2-3 to P98A mutant Cereblon (P98A Cereblon-DDB1): sufficiently recruits Ikaros Zf 2-3

Structure (SMILES): Nc1cccc2c1C(=O)N(C1CCC(=O)NC1=O)C2=O (stereo not drawn) [Pomalidomide, reference compound]
- conformation of P98A Cereblon in presence of drug (open/closed) (P98A Cereblon-DDB1; [3]): exclusively substrate-free open conformers; also recorded: cannot close
- recruitment of Ikaros Zf 2-3 to P98A mutant Cereblon (P98A Cereblon-DDB1): insufficient
